≈ marks a conversion by molar mass, not a printed value.
Assays:
Type in all cases: cell-based
[1] = tested on: P-388 (suspension culture of a lymphoid neoplasm from DBA/2 mouse); assay: Antitumour screening, P-388 cell growth (adapted Bergeron method); conditions: approximate IC50, three days of incubation, growth vs control wells
Procedure: (§1) Cell Cultures. Cells were maintained in logarithmic phase of growth in Eagle's Minimum Essential Medium, with Earle's Balanced Salts, with 2.0 mM L-glutamine, with non-essential amino acids, without sodium bicarbonate (EMEM/neaa); supplemented with 10% Fetal Calf Serum (FCS), 10^−2 M sodium bicarbonate and 0.1 g/l penicillin-G+streptomycin sulfate.
(§2) A simple screening procedure has been carried out to determine and compare the antitumour activity of these compounds, using an adapted form of the method described by Bergeron et al (1984). The tumour cell line employed were P-388 (suspension culture of a lymphoid neoplasm from DBA/2 mouse), A-549 (monolayer culture of a human lung carcinoma), HT-29 (monolayer culture of a human colon carcinoma) and MEL-28 (monolayer culture of a human melanoma).
(§3) P-388 cell were seeded into 16 mm wells at 1×10^4 cells per well in 1 ml aliquots of MEM 5FCS containing the indicated concentration of drug. A separate set of cultures without drug was seeded as control growth to ensure that cells remained in exponential phase of growth. All determinations were carried out in duplicate. After three days of incubation at 37° C., 10% CO2 in a 98% humid atmosphere, an approximate IC50 was determined by comparing the growth in wells with drug to the growth in wells contol.

[2] = tested on: A-549 (monolayer culture of a human lung carcinoma); assay: Antitumour screening, A-549 cell growth (crystal violet); conditions: approximate IC50, three days of incubation
Procedure: as §1, §2
as §3, with “A-549, HT-29 and MEL-28” for “P-388 cell”, “2×10^4” for “1×10^4”, “10FCS” for “5FCS”, “the wells were stained with 0.1% Crystal Violet. An” for “an”, “control.” for “contol.”

[3] = tested on: HT-29 (monolayer culture of a human colon carcinoma); assay: Antitumour screening, HT-29 cell growth (crystal violet); conditions: approximate IC50, three days of incubation
Procedure: as §1, §2
as §3, with “A-549, HT-29 and MEL-28” for “P-388 cell”, “2×10^4” for “1×10^4”, “10FCS” for “5FCS”, “the wells were stained with 0.1% Crystal Violet. An” for “an”, “control.” for “contol.”

[4] = tested on: MEL-28 (monolayer culture of a human melanoma); assay: Antitumour screening, MEL-28 cell growth (crystal violet); conditions: approximate IC50, three days of incubation
Procedure: as §1, §2
as §3, with “A-549, HT-29 and MEL-28” for “P-388 cell”, “2×10^4” for “1×10^4”, “10FCS” for “5FCS”, “the wells were stained with 0.1% Crystal Violet. An” for “an”, “control.” for “contol.”

| Molecule | IC50 ([1]; Mus musculus, P388, 72 h) [µg/mL] | IC50 ([2]; Homo sapiens, A549, 72 h) [µg/mL] | IC50 ([3]; Homo sapiens, HT-29, 72 h) [µg/mL] | IC50 P 388 [1] [µg/mL] | IC50 A 549 [2] [µg/mL] | IC50 HT 29 [3] [µg/mL] | IC50 MEL 28 [4] [µg/mL] |
| --- | --- | --- | --- | --- | --- | --- | --- |
| C=CCC/C=C\C=C/CCCCCC[C@H]1CC[C@@H]([C@H]2CC[C@@H](CC(=O)OC)OO2)O1 [Methyl ester (1b), Stolonoxide A methyl ester] | 0.1 (≈ 0.238 µM) | 0.1 (≈ 0.238 µM) | 0.1 (≈ 0.238 µM) | – | – | – | – |
| Stolonoxide B methyl ester [Methyl ester (2b)] | – | – | – | 0.5 | 0.1 | 0.1 | 0.5 |

Source: US7153885B2, “Stolonoxides” (Universidad de Cadiz, priority 2000, dated 2006)
